The subject of one test is MRSA. Kind of test: modified quantitative germicidal spray / quantitative carrier test, Example 1. The format is cell-based, Staphylococcus aureus. The settings on record: criterion: complete kill on 9 of 10 carriers, positive carrier at least 99% reduction; one minute.
In test [1] the test system is methicillin resistant Staphylococcus aureus (MRSA 4798). Kind of test: modified Kuhn's biofilm model on silicone discs, lock solutions. In kind it is cell-based. The conditions noted are these: quantitative culture of biofilm discs after 2 hrs in solution at 37° C. As for the experimental part:
(§1) Biofilm was grown on sterile silicone discs following a modified Kuhn's method. Briefly, silicone discs were placed into a 24 well tissue culture plate and incubated overnight at 37° C. The plasma was then removed and replaced with 1 mL of 5.5×10^5 CFU/mL inoculum of various organisms. The plates were then incubated for an additional 24 hrs at 37° C. Inoculum was then removed and discs were washed shaking for 30 minutes in 0.9% sterile saline. After washing the discs were placed in 1 mL of various antimicrobial solutions and incubated at 37° C. for 2 hrs. The discs were then removed and placed in 5 mL of 0.9% sterile saline and sonicated to disrupt any remaining biofilm. The resulting solution was then quantitatively cultured by making serial dilutions in 0.9% sterile saline and plating on agar plates, TSA+5% sheep blood for all bacterial organisms and Sabouraud Dextrose Agar for yeasts. A total of 3-9 discs were used for both organisms and respective labs solutions (see Tables 4-6).
(§2) Statistical methods: Wilcoxon rank sum tests were used for comparisons. All the analyses were performed using SAS version 9.1 (SAS Institute Inc., Cary, N.C.).

The subject of another test is Candida glabrata. The description is as above. The format is cell-based. The conditions noted are these: quantitative culture of biofilm discs after 2 hrs in solution at 37° C. On the procedure:
as §1, §2

Test [2] relates to MDR-Pseudomonas aeruginosa (PS 4689). Described as above. In kind it is cell-based. The conditions noted are these: quantitative culture of biofilm discs after 2 hrs in solution at 37° C. On the procedure:
as §1, §2

For the molecule `N=C(NCCCCCCNC(=N)NC(=N)Nc1ccc(Cl)cc1)NC(=N)Nc1ccc(Cl)cc1` [0.06% CHG alone, 1,1′-hexamethylene-bis-[5-(4-chlorophenyl)-biguanide]], the “test of being highly effective against MRSA (passed/failed)” value with MRSA is on record as “failed the test”.
For `OCC(O)CO` [50% Glycerol alone, Glycerol], the values for the Mean (in test [1]; in the test with Candida glabrata; in test [2]) were 1.0 × 10^7, 6.2 × 10^3 and 1.0 × 10^6, respectively. For the same molecule, the “Median (range)” value in test [1] is on record as 1.0 × 10^6; in the test on Candida glabrata it was 1.1 × 10^3; in test [2] it was 1.0 × 10^6.

The record behind these values is patent US9565857B2, “Antimicrobial solutions” (Board of Regents, The University of Texas System, priority 2010, dated 2017).
